Assay results from article PMC6102642, “Effect of Noncanonical Amino Acids on Protein–Carbohydrate Interactions: Structure, Dynamics, and Carbohydrate Affinity of a Lectin Engineered with Fluorinated Tryptophan Analogs” (ACS Chemical Biology, 2018).
pKd: −log10 of the molar value.

Columns and labels:
Type in all cases: binding
Conditions in all cases: SD
[1] = biological target: T1, RSL (Ralstonia solanacearum, UniProt A0A0S4TLR1); test: biochemical
T1 construct: gene E7Z57_08365

[2] = biological target: T2, RSL[4FW]
T2 construct: all seven Trp replaced by 4-fluorotryptophan (85% of protein 7/7 labeled); from pQE80L-RSL in E. coli BWEC47; homotrimer

[3] = biological target: T3, RSL[5FW]
T3 construct: all seven Trp replaced by 5-fluorotryptophan (86% of protein 7/7 labeled); from pQE80L-RSL in E. coli BWEC47; homotrimer

[4] = biological target: T4, RSL[7FW]
T4 construct: all seven Trp replaced by 7-fluorotryptophan (84% of protein 7/7 labeled); from pQE80L-RSL in E. coli BWEC47; homotrimer

| SMILES | pKd [1] | pKd [2] | pKd [3] | pKd [4] |
| --- | --- | --- | --- | --- |
| CC(=O)N[C@H]1[C@H](O[C@H]2[C@@H](O)[C@@H](CO)OC(O)[C@@H]2O)O[C@H](CO)[C@@H](O[C@@H]2O[C@H](CO)[C@H](O)[C@H](O)[C@H]2O[C@@H]2O[C@@H](C)[C@@H](O)[C@@H](O)[C@@H]2O)[C@@H]1O (stereo partly drawn) [HType2, blood group H type 2 antigen tetrasaccharide, Fucα1–2Galβ1–4GlcNAcβ1–3Gal] | 5.20 | 5.09 | 5.22 | 5.36 |
| CO[C@@H]1O[C@@H](C)[C@@H](O)[C@@H](O)[C@@H]1O [αMeFuc, methyl α-L-fucopyranoside] | 5.92 | 5.76 | 6.05 | 5.95 |
| CC(=O)N[C@H]1[C@H](O[C@H]2[C@@H](O)[C@@H](CO)OC(O)[C@@H]2O)O[C@H](CO)[C@@H](O[C@@H]2O[C@H](CO)[C@H](O)[C@H](O)[C@H]2O)[C@@H]1O[C@@H]1O[C@@H](C)[C@@H](O)[C@@H](O)[C@@H]1O (stereo partly drawn) [LeX, lewis X tetrasaccharide, Galβ1–4[Fucα1–3]GlcNAcβ1–3Gal] | 4.49 | 4.17 | 4.28 | 4.28 |
